Test results reported in patent publication US10660789B2, “1,4-dihydropyridine derivatives with HSP modulating activity” (Richter Gedeon NYRT., priority 2011, dated 2020).
Structures can show the parent of a compound that is named as a salt.

Experiments:
[1] = system: Hsp70 promoter; assay: Hsp promoter probing, Hsp70 promoter-YFP reporter, flow cytometry (Table 3); type: cell-based, mouse and human; parameters: key: +: co-inducing activity; −: silencing activity; 0: with the experimental methods applied no other HSP modulating effects could be identified; settings: heat shock 42° C. 1 h, 16 h recovery; B16 or SHSY5Y reporter cells, cell line per value not stated
Procedure: (§1) The Hsp co-inducing effect of the compounds on stress response was tested on B16 mouse melanoma and SHSY5Y human neuroblastoma cell lines stably transfected with Hsp promoter probing plasmids. This kind of promoter probing, using the promoter region of a given gene conjugated with fluorescent protein is used as a best and fastest test system for finding drugs which modulate the activity of the gene followed by the given promoter (Wyshocka et al., Mol. Cel. Biochem. 215:153-156, 2000).
The Hsp encoding genes are transactivated through the binding of HSF to the heat shock element found on the DNA upstream of the Hsp genes, in the so called promoter region. In the absence of heat stress, the heat shock factors are present as monomers. Upon heat stress, however, the heat shock factors form trimers, which are the active components, able to bind to heat shock elements. Once HSF is bound to the heat shock element in the promoter of Hsp genes, the gene following the promoter region is transcriptionally active.
(§2) Reporter plasmids, containing the Hsp70 and/or Hsp25 promoter conjugated to either YFP or GFP (yellow or green fluorescent protein), were stably transfected into the cells and the expression of YFP or GFP was followed by flow cytometry. Cells were either kept at 37° C. or exposed to heat shock at 42° C. for 1 hour followed by a 16 hour recovery period at 37° C. in the presence or absence of different concentrations of the test compound. After recovery the expression of YFP or GFP which is in straight correlation with the promoter activity of Hsp70 or Hsp27 genes was followed by measuring the fluorescence intensity of the cells by flow cytometry. Fluorescence intensity is in straight correlation with the amount of fluorescent protein (GFP or YFP) produced under the control of hsp promoter. The mean fluorescence intensity of YFP or GFP produced is shown as “Hsp promoter activity”.
(§3) Cells were homogenously distributed on 6-well plates in 1×10^5 cells/well density. B16-pHsp25-GFP and B16-pHsp70-YFP melanoma cells were grown in RPMI-1640 medium supplemented with 10% Fetal bovine serum (FBS), penicillin (200 units/ml), streptomycin (200 μg/ml) and 2 mM L-Glutamine. For maintaining the SH-SY5Y-pHsp25-GFP and SH-SY5YpHsp70-YFP neuroblastoma cell lines Dulbecco's modified Eagle's medium (DMEM-F-12) containing 10% FBS, 2 mM L-Glutamine, penicillin (200 units/ml), streptomycin (200 μg/ml) and MEM non-essential amino acids were used. Before the treatments both cell lines were incubated at 37° C. in a saturated humidity atmosphere containing 95% air and 5% CO2. After 24 h incubation cells were pretreated with compounds of the invention in four different concentrations (usually in 3; 10; 20 and 50 μM) 30 min before the heat shock at 42° C. for 1 h and then incubated further at 37° C. for 16 h (recovery period). After this procedure cells were trypsinized and suspensed in 500 μl serum-free DMEM-F12 medium. The changes in cells' fluorescence were detected using BD FACSCalibur flow cytometer.

[2] = system: other Hsps; assay: Other in vitro HSP modulating effects (Table 3); type: cell-based, mouse and human; parameters: key: +: co-inducing activity; −: silencing activity; 0: with the experimental methods applied no other HSP modulating effects could be identified
Procedure: as §1, §2, §3
SY-SY5Y and B16 cells were extracted in NP-40 lysis buffer (PBS pH 7.4, 1% protease inhibitor coctail and 1% Triton X-100). The cell extracts were then constantly agitated at 4° C. for 2 h. The cell extracts were centrifuged at 12000×g for 30 min and supernatants were saved. After the protein concentration measurement 15 μg of total protein was separated by sodium dodecyl sulfate-polyacrylamide gel electrophoresis (SDS-PAGE) under reducing conditions according to the method of Laemmli. Proteins were blotted onto PVDF membrane. The blot was incubated overnight at 4° C. in the presence of mouse α-Hsp25, α-Hsp70, α-Hsp60 és α-Hsp90 monoclonal antibodies diluted in PBS. Then, the membrane was washed three times in PBS-0.05% Tween and incubated for 1 h in peroxidase-conjugated anti-mouse IgG antibody diluted 1:50000 in PBS containing 3% non-fat dry milk. The immune complexes were detected with chemo-luminescent substrate of peroxidase according to the supplier's instructions. Images taken from the membranes were analyzed using AlphaEase FC software.

Row | melting point [°C] | Structure (SMILES) | Hsp70 modulation [1] | Other in vitro effects [2]
1 | 184 to 185 | COC(=O)C1=C(C)N(C)C(C)=C(C(=O)OC)C1c1ccc(F)cc1 [Example 2, Dimethyl 1,2,6-trimethyl-4-(4-fluorophenyl)-1,4-dihydropyridine-3,5-dicarboxylate] | + | 0
2 |  | CCOC(=O)C1=CN(Cc2ccccc2)C=C(C(=O)OCC)C1c1ccccc1 [Example 38, Diethyl 1-benzyl-4-phenyl-1,4-dihydropyridine-3,5-dicarboxylate, reference compound] | + | 0
3 |  | COC(=O)C1=C(CCN(C)C)N(C)C(CCN2CCc3cc(OC)c(OC)cc3C2)=C(C(=O)OC)C1c1ccc(C(F)(F)F)cc1 (centres unmarked) [Example 42, Dimethyl 2-[2-(6,7-dimethoxy-1,2,3,4-tetrahydroisoquinolin-2-yl)-ethyl]-6-(2-dimethylamino-ethyl)-1-methyl-4-(4-trifluoromethylphenyl)-1,4-dihydropyridine-3,5-dicarboxylate dihydrochloride] | + | 0
4 |  | COC(=O)C1=C(CCN(C)C)N(C)C(CCN(C)C)=C(C(=O)OC)C1c1cc(F)cc(F)c1 [Example 25, Dimethyl 4-(3,5-Difluorophenyl)-2,6-bis-(2-dimethylaminoethyl)-1-methyl-1,4-dihydropyridine-3,5-dicarboxylate dihydrochloride] | + | 0
5 | 118 to 119 | COC(=O)C1=C(C)N(C)C(C)=C(C(=O)OC)C1c1cccc(C(F)(F)F)c1 [Example 7, Dimethyl 1,2,6-trimethyl-4-(3-trifluoromethylphenyl)-1,4-dihydropyridine-3,5-dicarboxylate] | + | 0
6 | 146 to 149 | CCOC(=O)C1=C(C)N(C)C(C)=C(C(=O)OC)C1c1ccc(C(F)(F)F)cc1 (centres unmarked) [Example 32] | + | 0
7 | 168 to 170 | COC(=O)C1=C(C)N(C)C(C)=C(C(=O)OC)C1c1ccccc1C(F)(F)F [Example 8, Dimethyl 1,2,6-trimethyl-4-(2-trifluoromethylphenyl)-1,4-dihydropyridine-3,5-dicarboxylate] | + | 0
8 | 201 to 202 | COC(=O)C1=C(C)N(C)C(C)=C(C(=O)OC)C1c1ccc(-n2ccnc2)cc1 [Example 10, Dimethyl 1,2,6-trimethyl-4-(4-(1-imidazoly)lphenyl)-1,4-dihydropyridine-3,5-dicarboxylate] | + | 0
9 | 107 to 108 | CCOC(=O)C1=CN(Cc2ccccc2)C=C(C(=O)OCC)C1c1ccc(C(F)(F)F)cc1 [Example 34] | + | 0
10 | 186 to 188 | COC(=O)C1=C(C)N(C)C(CCN2CCc3ccccc3C2)=C(C(=O)OC)C1c1ccc(C(F)(F)F)cc1.O=C(O)/C=C/C(=O)O (centres unmarked) [Example 40, Dimethyl 2-[2-(1,2,3,4-tetrahidroisoquinolin-2-yl)-ethyl]-1,6-dimethyl-4-(4-trifluoromethyl-phenyl)-1,4-dihydropyridine-3,5-dicarboxylate fumarate] | + | 0
11 | 167 to 168 | COC(=O)C1=C(C)N(C)C(C)=C(C(=O)OC)C1c1cc(F)cc(F)c1 [Example 24, Dimethyl 4-(3,5-difluorophenyl)-1,2,6-trimethyl-1,4-dihydropyridine-3,5-dicarboxylate] | + | 0
12 | 201 to 203 | COC(=O)C1=C(C)N(C)C(C)=C(C(=O)OC)C1c1ccccc1 [Example 3, Dimethyl 1,2,6-trimethyl-4-phenyl-1,4-dihydropyridine-3,5-dicarboxylate] | + | 0
13 | 129 to 132 | COC(=O)C1=C(C)N(C)C(C#N)=C(C(=O)OC)C1c1ccc(C(F)(F)F)cc1 (centres unmarked) [Example 47, Dimethyl 2-cyano-1,6-dimethyl-4-(4-trifluoromethylphenyl)-1,4-dihydropyridine-3,5-dicarboxylate] | + | 0
14 | 142 to 143 | COC(=O)C1=C(C)N(C)C(C)=C(C(=O)OC)C1c1ccco1 [Example 44, Dimethyl 4-(furan-2-yl-1,2,6-trimethyl-1,4-dihydropyridine-3,5-dicarboxylate] | + | 0
15 | 204 to 206 | O=C(O)C1=CN(Cc2ccccc2)C=C(C(=O)O)C1c1ccccc1 [Example 39, 1-Benzyl-4-phenyl-1,4-dihydropyridine-3,5-dicarboxylic acid] | − | 0
16 | 173 to 175 | COC(=O)C1=C(C)N(C)C(C)=C(C(=O)OC)C1c1cccnc1 [Example 12, Dimethyl 1,2,6-trimethyl-4-(3-piridyl)-1,4-dihydropyridine-3,5-dicarboxylate] | − | 0
17 | 94 to 96 | CCOC(=O)C1=CN(C)C=C(C(=O)OCC)C1c1ccc(C(F)(F)F)cc1 [Example 37, Diethyl 1-methyl-4-(4-trifluoromethylphenyl)-1,4-dihydropyridine-3,5-dicarboxylate] | + | 0
18 | 187 to 189 | COC(=O)C1=C(C)N(C)C(C)=C(C(=O)OC)C1c1ccsc1 [Example 45, Dimethyl 1,2,6-Trimethyl-4-(thiophen-3-yl)-1,4-dihydropyridine-3,5-dicarboxylate] | + | 0
19 | 176 to 181 | COC(=O)C1=C(C)N(C)C(CCN2CCc3cc(OC)c(OC)cc3C2)=C(C(=O)OC)C1c1ccc(C(F)(F)F)cc1.Cl (centres unmarked) [Example 41, Dimethyl 2-[2-(6,7-dimethoxy-1,2,3,4-tetrahydroisoquinolin-2-yl)-ethyl]-1,6-dimethyl-4-(4-trifluoromethylphenyl)-1,4-dihydropyridine-3,5-dicarboxylate hydrochloride] | + | 0
20 | 201 to 203 | COC(=O)C1=C(C)N(C)C(CCN(C)C)=C(C(=O)OC)C1c1cc(F)cc(F)c1.Cl (centres unmarked) [Example 26, Dimethyl 4-(3,5-difluorophenyl)-2-(2-dimethylamino-ethyl)-1,6-dimethyl-1,4-dihydropyridine-3,5-dicarboxylate hydrochloride] | + | 0
21 |  | COC(=O)C1=C(CCN(C)C)N(C)C(CCN2CCCCC2)=C(C(=O)OC)C1c1ccc(C(F)(F)F)cc1 (centres unmarked) [Example 30, Dimethyl 2-(2-dimethylamino-ethyl)-1-methyl-6-(2-piperidin-1-yl-ethyl)-4-(4-trifluoromethylphenyl)-1,4-dihydropyridine-3,5-dicarboxylate dihydrochloride] | + | 0
